Source: patent US7514257B2, “Zinc finger transcription factor differentiation proteins” (ToolGen, Inc., priority 2001, dated 2009)
Values joined by “and” are separate entries in the source; they are usually repeats but may differ in a detail not shown here. Identical values can stand only once.

Legend:
yeast strain YPH499a = test: Ketoconazole resistance of yeast transformants; assay type: cell-based, Saccharomyces cerevisiae; settings: 10^7 cells plated on synthetic media
Procedure: To check the fungistatic response of the tester strain YPH499a to ketoconazole, 10^7 cells of the YPH499a strain were plated onto synthetic media containing different concentrations of the drug.
1×10^7 yeast cells containing plasmids from the 3-finger and 4-finger libraries were cultivated in synthetic liquid medium with 2% galactose for 3 hours at 30° C. to induce zinc finger protein expression and then were plated onto synthetic galactose agar plates containing 35 μM ketoconazole (ICN Biomedicals). After fours days of incubation at 30° C., about 120 clones formed colonies on galactose media containing 35 μM ketoconazole. These ketoconazole resistant yeast colonies were picked and streaked on fresh synthetic galactose agar plates containing 35 μM ketoconazole. 23 clones were randomly selected from the 120 resistant clones. For each of these 23 clones, the resistant phenotype was verified by plasmid rescue. […]
In one experiment, 5×10^4 cells from each transformant were serially diluted (10^−1, 10^−2, and 10^−3 fold) and spotted on galactose or glucose media supplemented without or with 35 μM ketoconazole. Growth of the cells was monitored after four days at 30° C. and compared to controls on the same plate. […]

[1] = tested on: SV40-SEAP reporter (pSEAP2-control); test: SEAP assay, SV40-SEAP reporter in 293 cells; assay type: cell-based, human
Procedure: Human embryonic kidney 293 cells were cultured with 100 μl of DMEM with 10% of FBS in a humidified atmosphere containing 95% air and 5% CO2 and seeded in wells of a 96 well plates 1 day ahead of transfection. The plasmids were isolated from individual colonies of each library separately and transfected into 293 cells LIPOFECTAMINE PLUS™ (Invitrogen) as recommended by the manufacturer. For MTT assay, 50 ng of plasmids containing zinc finger protein gene fused to the functional domains were transfected into cells cultured at 5·10^3 cells/well. For the SEAP assay, 10 ng of pSEAP2-control (Clontech) plasmid was co-transfected with 50 ng of plasmids containing zinc finger protein gene fused to the functional domains into cells cultured at 1·10^4 cells/well. The transfected cells were incubated at 37° C. for three days before assays.
(§1) Three days after transfection, medium was transferred to the new tubes and heated for 30 minutes at 65° C. to inactivate the endogenous alkaline phosphatase. 25 μl of medium was mixed with the same volume of 2×SEAP assay buffer (2 M Diethanolamine (pH 9.8) 10 ml, 1 M MgCl2 10 μl, 1 M homoarginine 200 μl, pNitro phenyl phosphate 44.52 mg). Absorbance at 405 nm was measured after the indicated incubation times at 37° C.
We tested whether library nucleic acids could alter expression of a heterologous nucleic acid. SEAP (secretory alkaline phosphatase) was used as a reporter protein to test whether a ZFP can affect amount of foreign protein produced intracellularly.

C2C12 myoblasts = test: ALP staining for transdifferentiation of C2C12 myoblasts to osteoblasts; assay type: cell-based, mouse; settings: absence of BMP-2, seven days after transfection
Text: We screened for chimeric zinc finger proteins that induce transdifferentiation of C2C12 myoblasts to osteoblasts in the absence of BMP-2. We transiently transfected a nucleic acid library encoding chimeric zinc finger proteins into C2C12 cells and screened for cells that undergo transdifferentiation in the absence of BMP-2. Seven days after transfection, the transformed cells were stained for alkaline phosphatase (ALP), a marker for osteoblasts (Katagiri, T. et al., (1994) J. Cell. Biol. 127:1755).
For these experiments, the mouse myoblast cell line, C2C12, was maintained in Dulbecco's Modified Eagle's Medium (DMEM) with 4.5 g/L glucose, 10% FBS, and antibiotics, at 37° C., in a humidified atmosphere containing 95% air and 5% CO2. Cells were seeded at 1.0·10^4 cells per 96-well culture plates. […] Twenty-four hours after transfection, the growth medium was replaced with DMEM containing 2% FBS, and the cells were cultured for an additional six days.
To examine the differentiation of C2C12 cells to osteoblasts, ALP staining was performed as described in Katagiri, T. et al., (1994) J. Cell.

293 cells = test: Cell growth of transfected 293 cells (cell count confirming MTT assay); assay type: cell-based, human; settings: for relative cell number, average: three days after transfection, relative to parental vector
Procedure: MTT assay is used to measure cell growth. Tetrazolium MTT reduced by metabolically active cells […] color indicates the number of viable cells. MTT assay was done using a MTT assay kit (Trevigen). The MTT assay was done at three days after transfection. Briefly, 10 μl of MTT solution was added directly to the culture medium and incubated for two hours in a CO2 incubator. Then, 100 μl of detergent solution from the MTT assay kit was added and incubated in the dark for two hours before measurement of absorbance at 570 nm was measured using a Power-Wave 340× (Bio-Tek Instrument).
To count cell numbers, 293 cells were seeded at 1.5·10^4 cells/well in a 24 well plate one day before transfection. Three days after transfection with 200 ng of ZFP-coding nucleic acid or control vector plasmids, cells were washed with PBS once and suspended in 30 ul of TE (10 mM Tris 1 mM EDTA, pH 8.0) buffer and counted by hematocytometery.
To confirm the MTT assay, the cell numbers were counted after transfection of K_D10 and K_F02 in 293 cells. The result was compared to the cell number of the well transfected with the parental vector, converted to relative percentages and shown in Table 13. […] The P values for K_D10 and K_F02 are 0.001 and 0.01, respectively. For sequence information, see FIGS. 18 and 19.

CMV-SEAP reporter = CMV-SEAP reporter in 293F cells; assay type: cell-based, human; settings: for CMV-SEAP, average: Vector (HANLS) = 1
Procedure: as §1
(§2) To investigate this point, an extensive screening had been carried out using the SEAP reporter under the control of CMV promoter (CMV-SEAP) in 293F cells. Two ZFPs, K44—11_D01 and K44—11_G12, that increase activity of the SEAP protein were isolated. These two ZFPs were further tested using two other reporter plasmids, SV40-SEAP and the luciferase reporter under the control of CMV promoter (CMV-Luc). […] Thus, K44—11_G12 may be used increase the production of proteins generally in cells, e.g., eukaryotic cells.

CMV-Luc reporter = CMV-Luc reporter in 293F cells; assay type: cell-based, human; settings: for CMV-Luc, average: Vector (HANLS) = 1
Procedure: For the luciferase assay, 5 ng of both CMV-luciferase and pRL-SV40 plasmid were co-transfected with 50 ng of ZFP coding plasmids to 293 cells seeded in wells of a 96 well plate. After 3 days of incubation, cells were harvested and the luciferase assay was done by a Dual Luciferase reporter assay system (Promega) as recommended by the manufacturer.
as §2

SV40-SEAP reporter = SV40-SEAP reporter in 293F cells; assay type: cell-based, human; settings: for SV40-SEAP, average: Vector (HANLS) = 1
Procedure: as §1
as §2, with “(CMV-Luc). […].” for “(CMV-Luc).”

[2] = tested on: mouse neuroblastoma Neuro2a cells; test: Neurite formation in Neuro2A cells; assay type: cell-based
Procedure: Mouse neuroblastoma Neuro2a cells were maintained in MEM-a media with 10% FBS and antibiotics at 37° C., in a humidified atmosphere containing 95% air and 5% CO2. Cells were seeded at 8.0·10^3 cells per 96-well culture plate and then were transfected using LIPOFECTAMINE PLUS™ reagent (Invitrogen,CA) according to the manufacturer's protocol, with 50 ng of ZFP, together with 20 ng of LacZ reporter plasmid. In vitro differentiation was carried out with or without retinoic acid (RA) (10 μM) respectively, and G418 (1 mg/ml) was treated 24 hours after transfection to reduce the number of untransfected cells. Cells were then cultured for 96 hours and then fixed, stained for β-galactosidase activity, and photographed. Among β-galactosidase-positive cells, cells were regarded as differentiated if the length of neurite extension was at least two times the diameter of the cell body.
To screen for ZFP-TFs that can induce neuronal differentiation, Neuro2A cells were transiently transfected with library plasmids and a reporter plasmid that includes the LacZ gene. LacZ expression was used to visualize the morphology of transfected cells. Because the differentiating cells grow slower than non-differentiating cells and the latter will dominate the cell population, we treated the cell culture with G418 24 hr after transfection to reduce the number of untransfected cells. After five days, cells were fixed and LacZ-stained. We then characterized the cells by their morphological characteristics. In particular, we identified cells with increased neurite length and thickness.

[3] = tested on: transcripts of human embryonic kidney 293 cells; test: Transcript profiling of 293 cells expressing F121_p65; assay type: cell-based
Procedure: DNA microarrays containing 7458 human EST clones were obtained from Genomictree (Korea). FlpTRex-293 cells stably expressing ZFP-TFs were grown with (+Dox) or without Dox) 1 μg/ml Doxycycline for 48 hours. Total RNA was prepared from each sample. RNA from the −Dox sample was used as a reference (Cy3), and +Dox as the experimental sample (Cy5). Microarray analysis was performed according to the manufacturer's protocols. Spots with sum of median less than 500 were colored red and not analyzed.
The zinc finger protein F121_p65 was expressed in human embryonic kidney 293 cells. […] F121_p65 increases transcription of insulin-like growth factor 2, among other genes.

For `CC(=O)N1CCN(c2ccc(OCC3COC(Cn4ccnc4)(c4ccc(Cl)cc4Cl)O3)cc2)CC1` (stereo not shown) [ketoconazole, Ketoconazole], the “ketoconazole concentration that inhibited growth of YPH499a cells” value (yeast strain YPH499a) was 35 µM.
“P_B08: ZFP QSNR1-DSNR-DSNR with p65 activation domain (SEQ ID NO:8)” was tested, and the “Absorbance (405 nm)” value ([1]; SEAP reporter activity, three days after transfection) was 2.40, the “SV40-SEAP reporter, average” value ([1]; Vector (HANLS) = 1) was 16.51 and the “increase of SEAP activity compared to parental plasmid” value ([1]; retest) was “approximately 16 fold”.
For “Osteo1-p65: four-finger ZFP RDKR-QTHR1-VSTR-RDKR with p65 activation domain (SEQ ID NO:4)”, the “cells with strong ALP staining” value (C2C12 myoblasts) was “about 30%”.
For “K_F02: ZFP DSAR2-RDKR-RDER1-QTHR1 with kid repression domain (SEQ ID NO:12)”, the “activation of cell growth compared to the control” value (293 cells) was 2.7 fold and the “relative cell number, average” value (293 cells) was 279.3%.
“K_D10: ZFP QSHV-WSNR-WSNR-RDNQ with kid repression domain (SEQ ID NO:10)” was tested, and the “inhibition of cell growth compared to parental vector” value (293 cells) was “approximately 3 fold” and the “relative cell number, average” value (293 cells) was 27.4%.
“K44_11_D01: ZFP QSHV-QSNI-QTHR1-CSNR1 with kid repression domain (SEQ ID NO:14)” was tested, and the “increase of SEAP activity compared to parental plasmid (vector)” value (CMV-SEAP reporter) was “approximately 3 fold”, the “CMV-SEAP, average” value (CMV-SEAP reporter) was 3.49 and the “activation of CMV-Luciferase (in words)” value (CMV-Luc reporter) was “not the CMV-Luciferase”. The “CMV-Luc, average” value (CMV-Luc reporter) was 0.87, the “activation of SV40-SEAP (in words)” value (SV40-SEAP reporter) was “showed activation of SV40-SEAP” and the “SV40-SEAP, average” value (SV40-SEAP reporter) was 3.66.
With `CC1=C(/C=C/C(C)=C/C=C/C(C)=C/C(=O)O)C(C)(C)CCC1` [RA, retinoic acid, reference compound] the “Percentage of neurite bearing cells” value ([2]; RA 10 uM) was 14.93 ± 7.69%.
For “K44_11_G12: ZFP QSHV-VSTR-RDNQ-QTHR1 with kid repression domain (SEQ ID NO:16)”, the “increase of SEAP activity compared to parental plasmid (vector)” value (CMV-SEAP reporter) was “approximately 3 fold”, the “CMV-SEAP, average” value (CMV-SEAP reporter) was 2.82 and the “activation of CMV-luciferase” value (CMV-Luc reporter) was 2-3 fold. The “CMV-Luc, average” value (CMV-Luc reporter) was 2.75, the “activation of SV40-SEAP” value (SV40-SEAP reporter) was 2-3 fold and the “SV40-SEAP, average” value (SV40-SEAP reporter) was 2.14.
“F121_p65: ZFP QSHT-RSHR-RDHT-p65 (SEQ ID NO:20)” was tested, and the “Norm ratio of medians (ROM)” value ([3]; FK506-binding protein 8 (38 kD), ID N95418) was 8.66, the “Norm ratio of medians (ROM)” value ([3]; Fn14 for type I transmenmbrane protein, ID AI221536) was 5.06 and the “Norm ratio of medians (ROM)” value ([3]; brain-specific protein p25 alpha, ID AA133959) was 5.71. For the same compound, the “Norm ratio of medians (ROM)” value ([3]; cadherin 13, H-cadherin (heart), ID R41787) was 7.34 and 5.90, the “Norm ratio of medians (ROM)” value ([3]; cellular retinoic acid-binding protein 2, ID AA598508) was 10.30 and the “Norm ratio of medians (ROM)” value ([3]; cyclin D1 (PRAD1: parathyroid adenomatosis, ID AA487486)) was 5.27. The “Norm ratio of medians (ROM)” value ([3]; cysteine-rich protein 2, ID AA485427) was 6.71, the “Norm ratio of medians (ROM)” value ([3]; growth arrest and DNA-damage-inducible, ID AA404666) was 5.55 and the “Norm ratio of medians (ROM)” value ([3]; insulin-like growth factor 2, ID H59614) was 17.71 and 16.88. For the same compound, the “Norm ratio of medians (ROM)” value ([3]; insulin-like growth factor 2, ID N54596) was 14.40, the “Norm ratio of medians (ROM)” value ([3]; jun B proto-oncogene, ID N94468) was 11.61 and the “Norm ratio of medians (ROM)” value ([3]; ketohexokinase (fructokinase), ID T61256) was 5.28. The “Norm ratio of medians (ROM)” value ([3]; lymphocyte antigen 6 complex, locus H, ID AI929550) was 5.50, the “Norm ratio of medians (ROM)” value ([3]; nuclear factor of activated T-cells, ID AA679278) was 9.64 and the “Norm ratio of medians (ROM)” value ([3]; protein phosphatase 2, regulatory subunit, ID R59165) was 9.89 and 8.60. For the same compound, the “Norm ratio of medians (ROM)” value ([3]; protein tyrosine phosphatase, receptor, ID R45941) was 16.45, the “Norm ratio of medians (ROM)” value ([3]; putative gene product, ID H09111) was 12.35 and the “Norm ratio of medians (ROM)” value ([3]; tumor necrosis factor (ligand) superfamily, ID AI347622) was 6.15. For the same compound, the “Norm ratio of medians (ROM)” value ([3]; unnamed (—), ID AA045731) was 5.27 and the “Norm ratio of medians (ROM)” value ([3]; zinc finger protein homologous to Zfp-36, ID R38383) was 6.46.
“Neuro1-p65: chimeric ZFP QSNR1-QSNK-CSNR1 with p65 activation domain (SEQ ID NO:2)” was tested, and the “Percentage of neurite bearing cells” value ([2]; No RA) was 42.39 ± 5.56%, the “Percentage of neurite bearing cells” value ([2]; RA 10 uM) was 41.59 ± 6.46% and the neuritogenesis ([2]; cells treated with 10 μM RA) was “marked acceleration of neuritogenesis”. For the same compound, the “neuritogenesis / differentiation (length and thickness of neurites)” value ([2]; without RA) was “most prominent effect on differentiation”.
